Test results taken from paper PMC2713172 (Biochemistry, 2008).
Read-outs that look alike come from different tables or passages of the source.

Assays:
[1] = biological target: CYP2C9 F114W mutant (Homo sapiens, UniProt P11712, F114W); experiment: in vitro; details: pH 7.4
[2] = biological target: CYP2C9 F100L mutant (Homo sapiens, UniProt P11712, F100L); experiment: in vitro; details: pH 7.4
[3] = biological target: CYP2C9 F114L/F476L double mutant (Homo sapiens, UniProt P11712, F114L/F476L)
[4] = biological target: CYP2C9 F114L mutant (Homo sapiens, UniProt P11712, F114L); experiment: biochemical
[5] = biological target: T1, wild-type CYP2C9 (Homo sapiens, UniProt P11712); details: WT; for T1, 2C9 + CO: dithionite/CO
[6] = biological target: CYP2C9 F476W mutant (Homo sapiens, UniProt P11712, F476W)
[7] = biological target: T1, wild-type CYP2C9

Compound: C[C@H](C(=O)O)c1ccc(-c2ccccc2)c(F)c1 [(S)-flurbiprofen]
- Km at 20 min [1]: 19.5 ± 3.2 µM
- Km at 20 min [2]: 34.8 ± 7 µM
- percent of wild-type kcat/Km [3]: 3%
- Kd [4]: 4.1 ± 0.6 µM
- T1, 2C9 ([5]; proton H2): 2.44 (0.10) seconds
- r, distance of proton from the heme iron ([5]; proton H2): 5.95 (0.11) angstroms
- T1, 2C9 + CO ([5]; proton H2): 2.79 (0.14) seconds
- T1, 2C9 ([5]; proton H4′): 3.44 (0.26) seconds
- r, distance of proton from the heme iron ([5]; proton H4′): 6.11 (0.19) angstroms
- T1, 2C9 + CO ([5]; proton H4′): 4.25 (0.44) seconds
- T1, 2C9 ([5]; proton H5): 2.17 (0.07) seconds
- r, distance of proton from the heme iron ([5]; proton H5): 6.27 (0.16) angstroms
- T1, 2C9 + CO ([5]; proton H5): 2.26 (0.10) seconds
- T1, 2C9 ([5]; proton H6): 1.79 (0.05) seconds
- r, distance of proton from the heme iron ([5]; proton H6): 7.30 (0.19) angstroms
- T1, 2C9 + CO ([5]; proton H6): 2.04 (0.10) seconds
- T1, 2C9 ([5]; protons CH3): 0.68 (0.01) seconds
- r, distance of proton from the heme iron ([5]; protons CH3): 7.82 (0.09) angstroms
- T1, 2C9 + CO ([5]; protons CH3): 0.68 (0.01) seconds
- T1, 2C9 ([5]; protons H2′/6′): 2.38 (0.07) seconds
- r, distance of proton from the heme iron ([5]; protons H2′/6′): 6.02 (0.37) angstroms
- T1, 2C9 + CO ([5]; protons H2′/6′): 2.77 (0.07) seconds
- T1, 2C9 ([5]; protons H3′/5′): 2.42 (0.08) seconds
- r, distance of proton from the heme iron ([5]; protons H3′/5′): 5.82 (0.15) angstroms
- T1, 2C9 + CO ([5]; protons H3′/5′): 2.70 (0.11) seconds
- percent of wild-type ΔA/K ([6]; F476W): 5%
- ΔA/K ([6]; F476W): 0.3 μM^−1 × 10^−3
- fraction high spin ([6]; F476W + ligand, used for the NMR distance calculation): 0.06
- H2O2/O2 ([7]; WT): 0.43
- H2O/Metabolite ([7]; WT): 0.7
- Metabolite/NADPH ([7]; WT, coupling efficiency): 0.21
- coupling of hydroxylation to NADPH consumption ([7]; wild-type CYP2C9): ~ 20%
